Tests used:
[1] = Contrast agent pharmacokinetics in plasma: bi-exponential fit of DCE-MRI signal enhancement curves (heart ventricle / great vessels) after bolus injection; format: in vivo; conditions: nude rats, bolus into tail vein, dose 0.1 mmol/kg wt
Description: Enhancement, E(t), is defined as the difference in signal intensities before and after contrast material injection: E(t)=[I(t)−I(t0)]/I(t0) Eq. (1) where I designates signal intensity. Assuming similar pharmacokinetics for all patients with normal kidney function, Cp(t) in ml contrast agent per liter blood may be given by the equation: Cp(t)=D(a1e^−m1^t+a2e^−m2^t) D=dose in ml/kg Eq. (2)
To determine contrast agent pharmacokinetics, GdDTPA was injected as a bolus into the tail of the rats at a dose of 0.1 mmol/kg. Changes in the bolus concentration of the contrast agent after injection were monitored by fitting the signal enhancement curves of the in vivo DCE-MRI studies, of regions of interest at the heart ventricle or in one of the great vessels, to a bi-exponential decay. Similar values were previously derived by measurements of blood samples taken after the bolus injection.
The time-dependent changes in signal enhancement were processed pixel-by-pixel using Tofts' physiological model, the contrast agent pharmacokinetics and pre-contrast T1 values (Table 1), and the calibration algorithms herein described.

[2] = listed under H460 NSCLC tumor tissue; Furman-Haran, 1997; cited from earlier work

## O=C([O-])CN(CCN(CC(=O)[O-])CC(=O)O)CCN(CC(=O)[O-])CC(=O)O.[Gd+3] [Gd-DTPA, Gadolinium-diethylene triamino pentaacetic acid]
[1]
  a1, Amplitude of fast decay: 9.44 kg/L
  a2, Amplitude of slow decay: 3.99 kg/L
  m1, Fast decay time constant: 0.75 min⁻¹
  m2, Slow decay time constant: 0.033 min⁻¹
[2]
  R1, T1 relaxivity: 4.2 {Furman- s^−1mM^−1

— patent publication US7949164B2, “Lung cancer diagnosis using magnetic resonance imaging data obtained at three time points” (Yeda Research & Development Co. Ltd., priority 2005, dated 2011)
